Source: ChEMBL document CHEMBL1201862, “PubChem BioAssay data set” (2004)
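Where inhibition never reached the appropriate level, the endpoint shown equals the highest concentration tested. Otherwise, values were interpolated linearly from a five-concentration, 48-hour dose response in 96-well plates. Abbreviation: GI50, concentration required for 50% inhibition of growth.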 Activity calls are given as the source filed them. Rule as the data show it: active = GI50 up to about 1.1 µM and inactive = higher.

Tests used:
Assay in all cases: NCI tumour cell line growth inhibition, 48 h
[1] = tested on: SF-295
[2] = tested on: TK-10
[3] = tested on: UO-31
[4] = tested on: HCT-116
[5] = tested on: M14
[6] = tested on: DMS-114
[7] = tested on: SNB-75
[8] = tested on: CCRF-CEM
[9] = tested on: HL-60
[10] = tested on: SR
[11] = tested on: NCI-H23
[12] = tested on: K562
[13] = tested on: KM-20L2
[14] = tested on: OVCAR-3
[15] = tested on: HCC 2998
[16] = tested on: CAKI-1
[17] = tested on: HOP-18
[18] = tested on: DU-145
[19] = tested on: MCF7
[20] = tested on: T47D

Row | SMILES | GI50 [1] | GI50 [2] | GI50 [3] | GI50 [4] | GI50 [5] | GI50 [6] | GI50 [7] | GI50 [8] | GI50 [9] | GI50 [10] | GI50 [11] | GI50 [12] | GI50 [13] | GI50 [14] | GI50 [15] | GI50 [16] | GI50 [17] | GI50 [18] | GI50 [19] | GI50 [20]
1 | CCN(CC)C(=O)CCn1cc(F)c(=O)[nH]c1=O | > 100 µM (inactive) | > 100 µM (inactive) | > 100 µM (inactive) | > 100 µM (inactive) | > 100 µM (inactive) | > 100 µM (inactive) | 4.68 µM (inactive) | > 100 µM (inactive) | > 100 µM (inactive) | > 100 µM (inactive) | > 100 µM (inactive) | > 100 µM (inactive) | > 100 µM (inactive) | > 100 µM (inactive) | – | – | – | – | – | –
2 | OCC(O)C(OC1OC(CO)C(O)C(O)C1O)c1nn(-c2ccccc2)c2nc3cc(Cl)c(Cl)cc3cc12 (stereo unspecified) | > 100 µM (inactive) | > 100 µM (inactive) | > 100 µM (inactive) | > 100 µM (inactive) | > 100 µM (inactive) | – | > 100 µM (inactive) | > 100 µM (inactive) | – | > 100 µM (inactive) | > 100 µM (inactive) | > 100 µM (inactive) | > 100 µM (inactive) | > 100 µM (inactive) | > 100 µM (inactive) | – | – | – | – | –
3 | COc1ccc(Nc2nc3c(N)cc(C(F)(F)F)cc3nc2-c2ccccc2)cc1OC | 19.7 µM (inactive) | 21.3 µM (inactive) | 30.3 µM (inactive) | 25.6 µM (inactive) | 28.6 µM (inactive) | – | 4.85 µM (inactive) | > 100 µM (inactive) | 8.63 µM (inactive) | 92.7 µM (inactive) | 32.9 µM (inactive) | 63 µM (inactive) | 36.9 µM (inactive) | 18.8 µM (inactive) | 24.1 µM (inactive) | 22.6 µM (inactive) | 13.7 µM (inactive) | – | – | –
4 | OC(Cc1cnnc2ccccc12)C(Cl)(Cl)Cl (stereo unspecified) | > 10 µM (inactive) | > 10 µM (inactive) | > 10 µM (inactive) | > 10 µM (inactive) | > 10 µM (inactive) | – | > 10 µM (inactive) | > 10 µM (inactive) | > 10 µM (inactive) | > 10 µM (inactive) | > 10 µM (inactive) | > 10 µM (inactive) | – | > 10 µM (inactive) | > 10 µM (inactive) | > 10 µM (inactive) | – | > 10 µM (inactive) | > 10 µM (inactive) | > 10 µM (inactive)
5 | NNC(=S)N/N=C/C(=C/Nc1ccccc1)[N+](=O)[O-] | > 100 µM (inactive) | > 100 µM (inactive) | – | > 100 µM (inactive) | > 100 µM (inactive) | > 100 µM (inactive) | > 100 µM (inactive) | – | > 100 µM (inactive) | 1 µM (active) | > 100 µM (inactive) | 10 µM (inactive) | > 100 µM (inactive) | > 100 µM (inactive) | > 100 µM (inactive) | > 100 µM (inactive) | – | – | – | –
6 | O=c1c2cc(Br)ccc2nc(-c2ccccc2)n1NCC1(O)OCC(O)C(O)C1O (stereo unspecified) | > 100 µM (inactive) | – | > 100 µM (inactive) | > 100 µM (inactive) | > 100 µM (inactive) | > 100 µM (inactive) | > 100 µM (inactive) | 40.2 µM (inactive) | 26.2 µM (inactive) | 48.8 µM (inactive) | > 100 µM (inactive) | > 100 µM (inactive) | > 100 µM (inactive) | 81.8 µM (inactive) | – | > 100 µM (inactive) | – | – | – | –
7 | N#CC(C(=N/NC(N)=S)/C(=N/NC(N)=S)C(C#N)c1ccc(Cl)cc1)c1ccc(Cl)cc1 (stereo unspecified) | > 100 µM (inactive) | > 100 µM (inactive) | > 100 µM (inactive) | > 100 µM (inactive) | > 100 µM (inactive) | > 100 µM (inactive) | 31.3 µM (inactive) | 22.6 µM (inactive) | – | – | 65.5 µM (inactive) | 34.9 µM (inactive) | > 100 µM (inactive) | 80 µM (inactive) | > 100 µM (inactive) | – | 94.2 µM (inactive) | – | – | –
8 | CCOC(=O)c1cc(=O)n(C)c(=O)n1C | > 100 µM (inactive) | > 100 µM (inactive) | > 100 µM (inactive) | > 100 µM (inactive) | > 100 µM (inactive) | – | > 100 µM (inactive) | > 100 µM (inactive) | – | – | > 100 µM (inactive) | > 100 µM (inactive) | > 100 µM (inactive) | > 100 µM (inactive) | > 100 µM (inactive) | > 100 µM (inactive) | > 100 µM (inactive) | – | – | –
9 | COc1ccc(/C=C2\OC(=O)C(Cl)=C2c2ccc(OC)c(Cl)c2)cc1 | 25.5 µM (inactive) | 21.7 µM (inactive) | 22 µM (inactive) | 39.1 µM (inactive) | 25.4 µM (inactive) | – | 19.7 µM (inactive) | 29.2 µM (inactive) | 47.1 µM (inactive) | 29 µM (inactive) | 20 µM (inactive) | 56.1 µM (inactive) | – | 20 µM (inactive) | 35.3 µM (inactive) | 21.9 µM (inactive) | – | 36.3 µM (inactive) | 19.9 µM (inactive) | 32.1 µM (inactive)
10 | S=c1[nH]c2ccc(Br)cc2c(=S)s1 | 27.4 µM (inactive) | 32.9 µM (inactive) | 22.1 µM (inactive) | 21.5 µM (inactive) | 30.5 µM (inactive) | – | 28.1 µM (inactive) | 30.8 µM (inactive) | 21.6 µM (inactive) | 38.5 µM (inactive) | 25.6 µM (inactive) | 29.6 µM (inactive) | – | 26.5 µM (inactive) | 26.1 µM (inactive) | 21.8 µM (inactive) | – | 38.1 µM (inactive) | 17.9 µM (inactive) | 22.5 µM (inactive)
11 | CC1=C(/C=C/C(C)=C/C=C/C(C)=C/C(=O)OCC2OC(n3cc(F)c(=O)[nH]c3=O)CC2OC(=O)/C=C(C)/C=C/C=C(C)/C=C/C2=C(C)CCCC2(C)C)C(C)(C)CCC1 (stereo unspecified) | 0.301 µM (active) | 21.6 µM (inactive) | 0.94 µM (active) | 2.82 µM (inactive) | 3.81 µM (inactive) | – | 10.4 µM (inactive) | 0.684 µM (active) | 1.14 µM (inactive) | 0.794 µM (active) | 10.4 µM (inactive) | 4.66 µM (inactive) | – | 9.75 µM (inactive) | 0.132 µM (active) | 0.959 µM (active) | – | 1.27 µM (inactive) | 0.225 µM (active) | 15.7 µM (inactive)
12 | COc1ccc(C(C)Nc2cc(OC)c(OC)c(OC)c2)cc1 (stereo unspecified) | 2.3 µM (inactive) | > 29.7 µM (inactive) | 10.5 µM (inactive) | 3.58 µM (inactive) | 6.21 µM (inactive) | – | 5.75 µM (inactive) | 3.29 µM (inactive) | 1.94 µM (inactive) | 3.1 µM (inactive) | 3.72 µM (inactive) | 2.19 µM (inactive) | 2.57 µM (inactive) | 2.69 µM (inactive) | 10.3 µM (inactive) | 4.23 µM (inactive) | > 100 µM (inactive) | – | – | –
13 | COC(=O)[C@]1(C)CCC[C@]2(C)C3CC4OOC3(C=C4C(C)(C)O)CCC21 (stereo partly specified) | 95.9 µM (inactive) | > 100 µM (inactive) | > 10 µM (inactive) | 31.8 µM (inactive) | 31 µM (inactive) | 30.8 µM (inactive) | – | 21.6 µM (inactive) | 14.3 µM (inactive) | – | 94 µM (inactive) | 21.9 µM (inactive) | 35.8 µM (inactive) | > 100 µM (inactive) | – | 64.6 µM (inactive) | – | – | – | –
